Assay results reported in paper PMC3501123 (Journal of medicinal chemistry, 2012).

How the values were obtained:
[1] = target: T1, human A1AR (Homo sapiens, UniProt P30542); experiment: cAMP accumulation assay; assay type: cell-based; conditions: for agonist efficacy in cAMP accumulation assay: compared to compound 3, highest concentration tested; for effect of αβ-met-ADP on potency: inclusion of 10 μM αβ-met-ADP (NT5E/CD73 inhibitor)
T1 sequence (P30542 1-326): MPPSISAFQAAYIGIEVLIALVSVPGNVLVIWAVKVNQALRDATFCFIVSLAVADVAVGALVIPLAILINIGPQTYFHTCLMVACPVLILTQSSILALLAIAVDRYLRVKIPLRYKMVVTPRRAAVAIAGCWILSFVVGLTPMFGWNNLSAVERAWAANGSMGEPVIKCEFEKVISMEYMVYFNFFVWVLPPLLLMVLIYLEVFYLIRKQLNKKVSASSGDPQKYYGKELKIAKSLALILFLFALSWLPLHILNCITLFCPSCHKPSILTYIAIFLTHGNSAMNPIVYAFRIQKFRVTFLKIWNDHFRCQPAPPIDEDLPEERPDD

[2] = test system: C57BL/6 mice; experiment: telemetry of heart rate and body temperature; assay type: in vivo, mouse; conditions: 5000 nmol/kg, oral
[3] = test system: C57BL/6 mice; experiment: noxious thermal sensitivity, Hargreaves paw withdrawal latency; assay type: in vivo, mouse
[4] = target: human A2AAR (Homo sapiens, UniProt P29274); experiment: radioligand binding assay
[5] = target: T1, human A1AR; experiment: Ca2+ mobilization assay with chimeric G proteins; assay type: cell-based; conditions: Emax normalized to Emax of adenosine
[6] = target: T2, human A3AR (Homo sapiens, UniProt P0DMS8); experiment: radioligand binding assay
T2 sequence (P0DMS8 1-318): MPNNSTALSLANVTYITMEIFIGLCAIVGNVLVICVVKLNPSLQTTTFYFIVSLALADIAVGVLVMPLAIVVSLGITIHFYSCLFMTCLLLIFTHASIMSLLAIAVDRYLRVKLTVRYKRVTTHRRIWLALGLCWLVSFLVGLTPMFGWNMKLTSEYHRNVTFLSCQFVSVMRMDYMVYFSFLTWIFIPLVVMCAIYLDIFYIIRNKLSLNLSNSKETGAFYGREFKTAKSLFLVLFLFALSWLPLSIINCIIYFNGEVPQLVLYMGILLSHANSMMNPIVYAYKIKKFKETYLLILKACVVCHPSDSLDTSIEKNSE

[7] = target: T3, human A2BAR (Homo sapiens, UniProt P29275); experiment: radioligand binding assay; conditions: read-out: % inhibition at A2B, 50 μM
T3 sequence (P29275 1-332): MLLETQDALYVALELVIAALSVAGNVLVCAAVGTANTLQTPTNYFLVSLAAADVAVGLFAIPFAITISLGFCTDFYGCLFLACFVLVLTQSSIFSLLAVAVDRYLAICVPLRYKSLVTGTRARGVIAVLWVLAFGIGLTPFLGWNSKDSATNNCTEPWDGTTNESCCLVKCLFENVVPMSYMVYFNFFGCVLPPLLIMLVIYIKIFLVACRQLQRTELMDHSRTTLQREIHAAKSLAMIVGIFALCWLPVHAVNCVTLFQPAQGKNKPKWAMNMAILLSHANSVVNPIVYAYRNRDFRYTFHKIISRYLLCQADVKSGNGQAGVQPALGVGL

[8] = oral, 50, 500 or 5000 nmol/kg, wild-type mice

Sequence of human A2AAR (P29274 whole entry): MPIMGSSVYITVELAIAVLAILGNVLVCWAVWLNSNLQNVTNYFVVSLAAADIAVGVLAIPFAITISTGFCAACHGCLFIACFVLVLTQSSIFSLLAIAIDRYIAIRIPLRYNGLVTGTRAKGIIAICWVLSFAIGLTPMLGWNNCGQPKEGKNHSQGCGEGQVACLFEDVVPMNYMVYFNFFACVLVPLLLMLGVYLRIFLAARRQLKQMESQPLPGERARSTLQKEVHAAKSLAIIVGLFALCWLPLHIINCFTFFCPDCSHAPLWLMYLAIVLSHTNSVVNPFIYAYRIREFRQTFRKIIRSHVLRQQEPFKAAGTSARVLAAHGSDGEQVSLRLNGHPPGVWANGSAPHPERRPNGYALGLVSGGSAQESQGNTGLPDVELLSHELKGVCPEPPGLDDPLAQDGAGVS

Row | SMILES | agonist efficacy in cAMP accumulation assay [1] | effect of αβ-met-ADP on potency [1] | effect on body temperature ([2]; A1AR–/– mice) | effect on heart rate ([2]; A1AR–/– mice) | effect on body temperature ([2]; wild-type mice) | effect on heart rate ([2]; wild-type mice) | effect on noxious thermal sensitivity [3, 8] | selectivity for A1AR over A2AAR [4] [fold] | agonist efficacy in Ca2+ mobilization assay [5] | selectivity for A1AR over A3AR [6] [fold] | inhibition at 50 µM [7] [%] | thermal antinociceptive effect in A1AR knockout mice ([3]; A1AR–/– mice, 5 nmol, IT injection) | effect on noxious thermal sensitivity ([3]; intrathecal (IT) or intravenous (IV) injection, mice)
1 | Nc1ncnc2c1ncn2[C@@H]1O[C@H](CO)[C@@H](OP(=O)(O)O)[C@H]1O [3′-AMP, adenosine 3′-monophosphate] | full agonists | did not significantly alter the potencies |  |  |  |  |  |  |  |  |  |  | 
2 | OC[C@H]1O[C@@H](n2cnc3c(NC4CCCC4)ncnc32)[C@H](O)[C@@H]1O [Compound 5, N^6-cyclopentyl adenosine, reference compound] |  |  | but not in A1AR^–/– mice | modest increase in heart rate | statistically significant decrease | statistically significant decrease | effects of 3a were similar to 5 |  |  |  |  |  | 
3 | Nc1ncnc2c1ncn2[C@@H]1O[C@H](CO)[C@@H](O)[C@H]1OP(=O)(O)O [2′-AMP, adenosine 2′-monophosphate] | full agonists | did not significantly alter the potencies |  |  |  |  |  |  |  |  |  |  | 
4 | O=P([O-])([O-])OC[C@H]1O[C@@H](n2cnc3c(NC4CCCC4)nc(Cl)nc32)[C@H](O)[C@@H]1O.[Na+].[Na+] [Compound 3d, Sodium ((2R,3S,4R,5R)-5-(2-Chloro-6-(cyclopentylamino)-9H-purin-9-yl)-3,4-dihydroxytetrahydrofuran-2-yl)methyl Phosphate] |  |  |  |  |  |  |  | > 100 | potent full agonists | > 10 |  |  | 
5 | COP(=O)(OC)OC[C@H]1O[C@@H](n2cnc3c(NC4CCCC4)nc(Cl)nc32)[C@H](O)[C@@H]1O [Compound 3a, ((2R,3S,4R,5R)-5-(2-Chloro-6-(cyclopentylamino)-9H-purin-9-yl)-3,4-dihydroxytetrahydrofuran-2-yl)methyl Dimethyl Phosphate] | full agonist |  | negligible effects | negligible effects | negligible effects | negligible effects | dose-dependently inhibited noxious thermal sensitivity | > 100 | potent full agonists | > 10 | < 10 | completely abolished | marked and dose-dependent inhibition of noxious thermal sensitivity
